# Assay results as given in patent publication US20260344661A1, “USE OF AN ALKYLETHER SULFATE FOR IMPROVING THE EFFICACY OF HERBICIDES” (BASF SE, priority 2022, published 2026).
# Assays:
# [1] = system: ØBLV = Σ % activity (CHEAL + KCHSC + AMATU + ABUTH)/4; assay: Greenhouse post-emergence weed control, average over broadleaf weeds (ØBLV, Tables 16-20); format: in vivo; conditions: average of CHEAL
# HORVS (spring barley) = assay: Greenhouse post-emergence weed control, damage vs untreated (HORVS); format: in vivo; conditions: 20 DAT
# SETVI (green foxtail) = assay: Greenhouse post-emergence weed control, damage vs untreated (SETVI); format: in vivo, Setaria viridis
# Method: (§1) A greenhouse study was conducted to evaluate the effect of the alkylether sulfates of formula (I) and other adjuvants on the weed control efficacy of glufosinate. Seedlings of grass plants (AVEFA, ECHCG, DIGSA and SETVI) and broadleaf weeds (KCHSC, CHEAL, AMAPA, AMATA and ABUTH) were grown to a height of 3 to 20 cm, depending on the plant habit in 10×10×10 cm pots filled with sandy planting soil (Limburgerhof soil). The weeds were treated with postemergence applications of glufosinate ammonium at the respective application rates given in the following tables, either alone or combined with various amounts of the respective adjuvants.
# (§2) For this, the herbicide formulation and the respective adjuvant were introduced into tap water to obtain the spray liquor. […] The spray liquor was then applied to the plant a spray volume of 200 l/ha using a sprayer (XR Teejet 110015).
# (§3) The test period extended over 21 days. During this time, the plants were tended, and their response to the treatments with active compound was evaluated.
# (§4) The evaluation for the damage caused by the chemical compositions was carried out using a scale from 0 to 100%, compared to the untreated control plants. Here, 0 means no damage and 100 means complete destruction of the plants.
# (§5) The plants used in the greenhouse experiments belonged to the following species:
# (§6) The results are summarized in the following tables 1 to 15 that show the applied doses of the individual actives as gram of active ingredient per hectare (g ai/ha), the herbicidal activity of the individual […]
# ECHCG (barnyardgrass) = assay: Greenhouse post-emergence weed control, damage vs untreated (ECHCG); format: in vivo, Echinochloa crus-galli
# Method: as §1, §2, §3, §4, §5, §6
# [2] = system: ØBLV (average value of KCHSC, CHEAL, AMAPA, AMATA and ABUTH); assay: Greenhouse post-emergence weed control, average over broadleaf weeds (ØBLV); format: in vivo; conditions: 20 DAT
# Method: as §1, §2, §3, §4, §5
# (§7) The results are summarized in the following tables 1 to 15 that show the applied doses of the individual actives as gram of active ingredient per hectare (g ai/ha), the herbicidal activity of the individual actives and of their combinations in post-emergence application assessed 14 and 28 day after treatment (DAT), respectively.
# HORVW (winter barley) = assay: Greenhouse post-emergence weed control, damage vs untreated (HORVW); format: in vivo, Hordeum vulgare; conditions: 20 DAT
# DIGSA (large crabgrass) = assay: Greenhouse post-emergence weed control, damage vs untreated (DIGSA); format: in vivo, Digitaria sanguinalis; conditions: 20 DAT
# Method: as §1, §2, §3, §4
# (§8) The plants used in the greenhouse experiments belonged to the following species: […]
# ABUTH (velvetleaf) = assay: Greenhouse post-emergence weed control, damage vs untreated (ABUTH); format: in vivo, Abutilon theophrasti; conditions: 20 DAT
# Method: as §1, §2
# […] During this time, the plants were tended, and their response to the treatments with active compound was evaluated.
# as §4, §8
# TRZAS (spring wheat) = assay: Greenhouse post-emergence weed control, damage vs untreated (TRZAS); format: in vivo, Soft wheat (spring)
# KCHSC (kochia) = assay: Greenhouse post-emergence weed control, damage vs untreated (KCHSC); format: in vivo, Kochia scoparia; conditions: 20 DAT
# Method: as §1, §2, §3, §4, §8
# [3] = system: Øgras (average value of AVEFA, ECHCG, DIGSA and SETVI); assay: Greenhouse post-emergence weed control, average over grasses (Øgras); format: in vivo
# Method: as §1, §2, §3, §4, §5, §6
# AMAPA (palmer amaranth) = assay: Greenhouse post-emergence weed control, damage vs untreated (AMAPA); format: in vivo, Amaranthus palmeri; conditions: 20 DAT
# Method: as §1, §2, §3, §4, §5, §7
# AMATU (tall waterhemp) = assay: Greenhouse post-emergence weed control, damage vs untreated (AMATU); format: in vivo, Amaranthus tuberculatus; conditions: 20 DAT
# Method: as §1, §2, §3, §4, §5, §7
# AVEFA (wild oat) = assay: Greenhouse post-emergence weed control, damage vs untreated (AVEFA); format: in vivo, Avena fatua
# Method: as §1, §2, §3, §4, §5, §6
# [4] = g ai/ha: 42.375 solo (CE1-C), 42.375 + 66.97 combined (IE3-A/B/C, CE2-J)
# [5] = g ai/ha: 84.75 solo (CE1-C), 84.75 + 133.94 combined (IE3-A/B/C, CE2-J)
# [6] = g ai/ha: 169.5 solo (CE1-C), 169.5 + 267.89 combined (IE3-A/B/C, CE2-J)
# [7] = g ai/ha: 339 solo (CE1-C), 339 + 535.77 combined (IE3-A/B/C, CE2-J)
# [8] = 5 g ai/ha L-glufosinate (so in the source), no adjuvant
# [9] = 37.5 g ai/ha L-glufosinate, adjuvant g ai/ha: none (CE1-B), 56 (IE2-A), 62.125 (IE2-B), 51.625 (CE2-F)
# [10] = 150 g ai/ha L-glufosinate, adjuvant g ai/ha: none (CE1-B), 223 (IE2-A), 248.5 (IE2-B), 206.5 (CE2-F)
# [11] = 300 g ai/ha L-glufosinate, adjuvant g ai/ha: none (CE1-B), 446 (IE2-A), 497 (IE2-B), 413 (CE2-F)
smiles,measurement,setting,value
"CP(=O)(O)CC[C@H](N)C(=O)O.N [CE1-B, ammonium (2S)-2-amino-4-(methylphosphinato)butyric acid]",% activity (ØBLV),[1]; [4],8%
same,% activity (ØBLV),[1]; [5],26%
same,% activity (ØBLV),[1]; [6],27%
same,% activity (ØBLV),[1]; [7],53%
same,% activity HORVS,HORVS (spring barley); [4],0%
same,% activity HORVS,HORVS (spring barley); [5],0%
same,% activity HORVS,HORVS (spring barley); [6],0%
same,% activity HORVS,HORVS (spring barley); [7],10%
same,% activity,SETVI (green foxtail); [8],98%
same,% activity,SETVI (green foxtail); [9],85%
same,% activity,SETVI (green foxtail); [10],98%
same,% activity,SETVI (green foxtail); [11],95%
same,% activity,ECHCG (barnyardgrass); [8],0%
same,% activity,ECHCG (barnyardgrass); [9],0%
same,% activity,ECHCG (barnyardgrass); [10],20%
same,% activity,ECHCG (barnyardgrass); [11],60%
same,% activity ECHCG,ECHCG (barnyardgrass); [4],0%
same,% activity ECHCG,ECHCG (barnyardgrass); [5],3%
same,% activity ECHCG,ECHCG (barnyardgrass); [6],3%
same,% activity ECHCG,ECHCG (barnyardgrass); [7],20%
same,% activity (ØBLV),[2]; [8],34%
same,% activity (ØBLV),[2]; [9],26%
same,% activity (ØBLV),[2]; [10],46%
same,% activity (ØBLV),[2]; [11],56%
same,% activity,HORVW (winter barley); [8],0%
same,% activity,HORVW (winter barley); [9],5%
same,% activity,HORVW (winter barley); [10],5%
same,% activity,HORVW (winter barley); [11],15%
same,% activity,DIGSA (large crabgrass); [8],0%
same,% activity DIGSA,DIGSA (large crabgrass); [4],5%
same,% activity DIGSA,DIGSA (large crabgrass); [5],15%
same,% activity DIGSA,DIGSA (large crabgrass); [6],55%
same,% activity DIGSA,DIGSA (large crabgrass); [7],70%
same,% activity,DIGSA (large crabgrass); [9],0%
same,% activity,DIGSA (large crabgrass); [10],30%
same,% activity,DIGSA (large crabgrass); [11],40%
same,% activity,ABUTH (velvetleaf); [8],10%
same,% activity ABUTH,ABUTH (velvetleaf); [4],5%
same,% activity ABUTH,ABUTH (velvetleaf); [6],30%
same,% activity ABUTH,ABUTH (velvetleaf); [7],68%
same,% activity,ABUTH (velvetleaf); [9],10%
same,% activity,ABUTH (velvetleaf); [10],30%
same,% activity,ABUTH (velvetleaf); [11],60%
same,% activity TRZAS,TRZAS (spring wheat); [4],0%
same,% activity TRZAS,TRZAS (spring wheat); [5],0%
same,% activity TRZAS,TRZAS (spring wheat); [6],5%
same,% activity TRZAS,TRZAS (spring wheat); [7],5%
same,% activity,KCHSC (kochia); [8],5%
same,% activity KCHSC,KCHSC (kochia); [4],3%
same,% activity KCHSC,KCHSC (kochia); [5],3%
same,% activity KCHSC,KCHSC (kochia); [6],28%
same,% activity KCHSC,KCHSC (kochia); [7],35%
same,% activity,KCHSC (kochia); [9],0%
same,% activity,KCHSC (kochia); [10],5%
same,% activity,KCHSC (kochia); [11],10%
same,% activity (Øgras),[3]; [8],26%
same,% activity (Øgras),[3]; [9],21%
same,% activity (Øgras),[3]; [10],40%
same,% activity (Øgras),[3]; [11],54%
same,% activity,AMAPA (palmer amaranth); [8],60%
same,% activity,AMAPA (palmer amaranth); [9],98%
same,% activity,AMAPA (palmer amaranth); [10],98%
same,% activity,AMAPA (palmer amaranth); [11],98%
same,% activity AMATU,AMATU (tall waterhemp); [4],23%
same,% activity AMATU,AMATU (tall waterhemp); [5],75%
same,% activity AMATU,AMATU (tall waterhemp); [6],45%
same,% activity AMATU,AMATU (tall waterhemp); [7],97%
same,% activity,AVEFA (wild oat); [8],5%
same,% activity,AVEFA (wild oat); [9],0%
same,% activity,AVEFA (wild oat); [10],10%
same,% activity,AVEFA (wild oat); [11],20%
same,% activity AVEFA,AVEFA (wild oat); [4],3%
same,% activity AVEFA,AVEFA (wild oat); [5],3%
same,% activity AVEFA,AVEFA (wild oat); [6],5%
same,% activity AVEFA,AVEFA (wild oat); [7],8%
